Laboratory results reported in article PMC4286191 (MedChemComm, 2014).

Legend:
[1] = biological target: purified recombinant LSD1 (Homo sapiens, UniProt O60341); assay: Fluorescence-based recombinant LSD1 inhibition assay; type: biochemical; conditions: residual activity at 10 μM; average of 3 determinations ± SEM; Table 2
CA46 Burkitt's lymphoma = assay: Cytotoxicity in CA46; type: cell-based
[2] = system: MCF-10A human breast epithelial cell line; assay: Cytotoxicity in MCF-10A; type: cell-based

% LSD1 Activity (10μM) [1] [%]	SMILES	Cytotoxicity in CA46 (CA46 Burkitt's lymphoma)	Cytotoxicity in MCF-10A [2]
33.9 ± 6.7	N=C(NCCCNCCCCCCCNCCCNC(=N)NC(=N)NCCC(c1ccccc1)c1ccccc1)NC(=N)NCCC(c1ccccc1)c1ccccc1 [Compound 2, verlindamycin]		
	COc1ccccc1CNc1n[nH]c(NCc2ccccc2OC)n1 [Compound 7, N^3,N[5]-bis(2-methoxybenzyl)-1H-1,2,4-triazole-3,5-diamine]	no significant cytotoxicity	no significant cytotoxicity
